Values of other authors as cited in patent US20060111442A1, “Use of methyl pyruvate to increase cellular energy production downstream of glycolysis for the PARP-1 ablation of HIV without necrotic cell death caused by continuous, chronic PARP-1 activation through the concomitant depletion of ATP and NAD” (priority 2004, published 2006).
Read-outs that look alike come from different tables or passages of the source.

Assays:
[1] = tested on: human neuroblastoma cells (SK-N-SH and SK-N-MC); conditions: for 15-deoxy-PGJ2-induced cell growth inhibition: co-treatment
PPARgamma [2] = target: T1, PPARgamma (Homo sapiens, UniProt P37231); design: expressed in transfected cells
T1 sequence (P37231 1-505): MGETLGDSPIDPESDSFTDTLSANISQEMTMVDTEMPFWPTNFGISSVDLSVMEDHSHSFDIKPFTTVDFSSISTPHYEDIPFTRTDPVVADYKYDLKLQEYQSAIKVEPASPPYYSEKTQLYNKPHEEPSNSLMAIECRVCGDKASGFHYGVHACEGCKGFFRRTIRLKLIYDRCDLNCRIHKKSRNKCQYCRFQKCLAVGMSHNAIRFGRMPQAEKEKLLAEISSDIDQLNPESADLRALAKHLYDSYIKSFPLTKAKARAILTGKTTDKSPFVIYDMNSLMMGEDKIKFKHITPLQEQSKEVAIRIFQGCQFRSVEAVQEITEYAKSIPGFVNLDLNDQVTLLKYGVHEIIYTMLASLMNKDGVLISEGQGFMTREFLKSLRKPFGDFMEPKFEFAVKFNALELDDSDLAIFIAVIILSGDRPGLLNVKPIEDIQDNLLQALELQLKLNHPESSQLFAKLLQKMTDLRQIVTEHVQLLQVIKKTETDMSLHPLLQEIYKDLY

PPARalpha = target: T2, PPARalpha (Homo sapiens, UniProt Q07869)
T2 construct: expressed in transfected cells
T2 sequence (Q07869 whole entry, species assumed): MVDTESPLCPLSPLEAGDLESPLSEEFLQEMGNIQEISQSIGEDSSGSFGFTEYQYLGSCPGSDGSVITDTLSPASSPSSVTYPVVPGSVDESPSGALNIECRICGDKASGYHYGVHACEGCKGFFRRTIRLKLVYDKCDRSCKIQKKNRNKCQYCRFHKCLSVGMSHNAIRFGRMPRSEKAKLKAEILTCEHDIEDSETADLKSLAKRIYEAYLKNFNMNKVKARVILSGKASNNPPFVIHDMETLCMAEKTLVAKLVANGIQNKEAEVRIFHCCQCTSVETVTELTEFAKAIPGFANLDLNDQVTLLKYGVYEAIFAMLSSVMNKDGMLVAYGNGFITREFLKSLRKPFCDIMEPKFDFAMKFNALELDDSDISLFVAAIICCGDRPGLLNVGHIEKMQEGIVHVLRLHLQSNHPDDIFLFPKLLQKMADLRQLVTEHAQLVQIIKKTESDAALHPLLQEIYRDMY

[3] = human, in vivo
[4] = tested on: human non-small cell lung carcinoma cell lines (H1838 and H2106)
[5] = tested on: human glioblastoma cell lines (A172, U87-MG, M059K, M059J); conditions: all cell lines
THP-1 monocytic cells = conditions: PMA-stimulated
[6] = tested on: hepatic stellate cells (HSC)
[7] = tested on: rat aortic vascular smooth muscle cell; conditions: 0.1-10 microM
[8] = tested on: Mouse neuron and astrocyte cultures; conditions: for NAD(+) depletion resulting from PARP1 activation: MNNG or H(2)O(2); for poly(ADP-ribose) accumulation: during MNNG exposure, immunostaining; for Cell death: hydrogen peroxide, NMDA or MNNG exposure
[9] = tested on: primary astrocyte cultures; conditions: for MPT and cell death: after PARP-1 activation, cyclosporin A sub-micromolar
[10] = 30 mg/kg i.p. 30 min prior to rosiglitazone
[11] = mouse, in vivo
[12] = not given; remark: listed apart in the source
[13] = tested on: porcine carotid artery strips; conditions: for change in resting tone: 10 mM KCl
[14] = tested on: Jurkat T-lymphocyte mitochondria
[15] = tested on: isolated rat pancreatic islets
[16] = tested on: isolated beta-cell mitochondria; conditions: with glutamate, vs pyruvate/glutamate
K(ATP) channels = target: T3, K(ATP) channels (Homo sapiens, UniProt Q09428+Q14654); conditions: standard whole-cell configuration
T3 construct: endogenous in cells; host or cells: pancreatic beta-cells
T3 sequence (Q14654 whole entry): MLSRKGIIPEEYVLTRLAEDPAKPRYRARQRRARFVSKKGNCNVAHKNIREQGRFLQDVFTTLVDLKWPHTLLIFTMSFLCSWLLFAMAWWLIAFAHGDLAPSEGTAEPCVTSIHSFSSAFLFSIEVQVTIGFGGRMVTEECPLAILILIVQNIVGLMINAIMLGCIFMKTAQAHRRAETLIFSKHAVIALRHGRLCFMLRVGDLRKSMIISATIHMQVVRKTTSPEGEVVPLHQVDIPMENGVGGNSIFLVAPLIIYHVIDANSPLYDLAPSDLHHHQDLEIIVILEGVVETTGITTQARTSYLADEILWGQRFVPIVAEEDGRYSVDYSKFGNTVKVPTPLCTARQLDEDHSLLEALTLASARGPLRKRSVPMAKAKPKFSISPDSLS
T3 sequence (Q09428 whole entry): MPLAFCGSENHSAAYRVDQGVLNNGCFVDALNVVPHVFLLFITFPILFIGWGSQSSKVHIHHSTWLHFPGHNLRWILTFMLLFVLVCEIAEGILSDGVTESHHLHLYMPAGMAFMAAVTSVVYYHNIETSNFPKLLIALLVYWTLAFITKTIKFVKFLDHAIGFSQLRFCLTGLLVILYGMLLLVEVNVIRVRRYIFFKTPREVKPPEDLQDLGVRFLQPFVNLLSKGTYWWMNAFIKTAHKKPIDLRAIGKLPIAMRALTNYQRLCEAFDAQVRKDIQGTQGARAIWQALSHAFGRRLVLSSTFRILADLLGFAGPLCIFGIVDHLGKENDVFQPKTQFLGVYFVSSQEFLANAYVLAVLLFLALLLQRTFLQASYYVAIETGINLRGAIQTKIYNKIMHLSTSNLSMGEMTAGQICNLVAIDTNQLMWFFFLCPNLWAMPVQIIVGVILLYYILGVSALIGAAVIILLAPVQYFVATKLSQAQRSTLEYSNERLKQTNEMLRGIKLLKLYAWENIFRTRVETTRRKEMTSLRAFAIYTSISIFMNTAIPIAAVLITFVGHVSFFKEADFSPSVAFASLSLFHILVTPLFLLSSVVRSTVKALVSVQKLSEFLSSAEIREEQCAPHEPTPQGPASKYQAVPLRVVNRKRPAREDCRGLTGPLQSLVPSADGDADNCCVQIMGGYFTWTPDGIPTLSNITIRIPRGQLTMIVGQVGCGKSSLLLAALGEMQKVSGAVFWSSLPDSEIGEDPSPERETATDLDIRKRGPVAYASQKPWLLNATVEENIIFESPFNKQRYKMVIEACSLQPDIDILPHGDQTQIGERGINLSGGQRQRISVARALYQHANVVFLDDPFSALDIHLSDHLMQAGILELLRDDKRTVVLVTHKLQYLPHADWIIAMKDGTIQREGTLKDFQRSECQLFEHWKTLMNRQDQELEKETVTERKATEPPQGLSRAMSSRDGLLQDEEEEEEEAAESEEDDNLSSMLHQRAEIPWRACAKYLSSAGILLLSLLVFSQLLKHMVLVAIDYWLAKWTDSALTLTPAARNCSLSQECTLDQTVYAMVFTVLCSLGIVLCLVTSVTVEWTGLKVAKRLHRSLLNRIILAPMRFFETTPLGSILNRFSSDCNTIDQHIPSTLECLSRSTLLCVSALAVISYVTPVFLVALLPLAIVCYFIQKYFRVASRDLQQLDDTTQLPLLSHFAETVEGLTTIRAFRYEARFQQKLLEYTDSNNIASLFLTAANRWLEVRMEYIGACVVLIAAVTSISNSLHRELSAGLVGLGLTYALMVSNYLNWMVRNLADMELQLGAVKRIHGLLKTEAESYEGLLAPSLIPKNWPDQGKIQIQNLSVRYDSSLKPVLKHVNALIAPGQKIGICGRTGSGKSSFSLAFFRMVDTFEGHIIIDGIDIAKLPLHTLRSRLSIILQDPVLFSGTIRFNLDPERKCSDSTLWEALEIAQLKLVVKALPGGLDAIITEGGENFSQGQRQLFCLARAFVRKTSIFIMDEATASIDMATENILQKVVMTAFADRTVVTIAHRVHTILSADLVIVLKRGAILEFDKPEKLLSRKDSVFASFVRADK

PPARgamma [17] = target: T1, PPARgamma; design: endogenous in cells; host or cells: human mammary tumour cell lines
[18] = tested on: human mammary tumour cell lines

## COc1cccc(-c2cc(=O)c3ccccc3o2)c1N [PD98059, 2′-amino-3′-methoxyflavone]
[1]
  15-deoxy-PGJ2-induced cell growth inhibition: significantly prevented

## CC(C)=CCC(=O)C1(O)C(O)=C(C(=O)C(C)C)C(=O)C1CC=C(C)C (stereo not shown) [isocohumulone]
PPARgamma [2]
  activation of PPARgamma: activate
PPARalpha
  activation of PPARalpha: activate

## CN(CCOc1ccc(CC2SC(=O)NC2=O)cc1)c1ccccn1 (stereo not shown) [rosiglitazone]
[3]
  blood counts, viral loads, CD4 counts: no significant changes

## CCCCC/C=C/C=C1/C(=O)C=C[C@@H]1C/C=C\CCCC(=O)O [PGJ2, 15-deoxy-Delta12,14-prostaglandin J2]
0.3 mg kg-1 i.v.
  nitrotyrosine formation and ICAM-1 upregulation during reperfusion: markedly reduced
0.3 mg kg-1 i.v. 30 min prior to ischaemia
  fall in mean arterial blood pressure, mortality rate, MPO activity, MDA levels, TNF-alpha and IL-1 beta, histological gut injury: significantly reduced
[4]
  EP2 mRNA and protein levels: significant decrease
  cell growth: inhibition of cell growth
[5]
  proliferation: inhibited proliferation
THP-1 monocytic cells
  IL-1, IL-6 and TNFalpha secretion: inhibitory effect
  IL-1Ra production: increasing IL-1Ra production
[6]
  alpha1 (I) procollagen promoter activity: inhibited
[6]; 10 microm 15dPGJ(2), 0.1 approximately 10 microm BRL49653, WY14643 >100 microm, not <10 microm
  HSC DNA and collagen synthesis: inhibited DNA and collagen synthesis without affecting the cell viability
[1]
  induction of apoptosis: increased the induction of apoptosis in a dose-dependent manner
[1]; both cells
  cell growth: inhibited cell growth in time- and dose-dependent manners

## O=C(O)c1c(Sc2ccccc2)c2cc(Cl)ccc2n1Cc1ccc(Cl)cc1 [nTZDpa]
Human coronary VSMCs
  apoptosis: induce caspase-mediated apoptosis
[7]
  vascular smooth muscle cell growth: inhibited vascular smooth muscle cell growth

## O=C(OC[C@H]1O[C@@H](OC(=O)c2cc(O)c(O)c(OC(=O)c3cc(O)c(O)c(O)c3)c2)[C@H](OC(=O)c2cc(O)c(O)c(OC(=O)c3cc(O)c(O)c(O)c3)c2)[C@@H](OC(=O)c2cc(O)c(O)c(OC(=O)c3cc(O)c(O)c(O)c3)c2)[C@@H]1OC(=O)c1cc(O)c(O)c(OC(=O)c2cc(O)c(O)c(O)c2)c1)c1cc(O)c(O)c(OC(=O)c2cc(O)c(O)c(O)c2)c1 [gallotannin]
[8]
  NAD(+) depletion resulting from PARP1 activation: prevented the NAD(+) depletion
  poly(ADP-ribose) accumulation: increase
  Cell death: equally reduced

## NC(=O)c1ccccc1 [benzamide]
[8]
  NAD(+) depletion resulting from PARP1 activation: prevented the NAD(+) depletion
  poly(ADP-ribose) accumulation: decrease
  Cell death: markedly reduced

## cyclosporin A
[9]
  translocation of the apoptosis-inducing factor from mitochondria to nuclei: blocked translocation
  MPT and cell death: blocked MPT and cell death

## CC(C)(c1ccc(OCC2CO2)cc1)c1ccc(OCC2CO2)cc1 (stereo not shown) [BADGE, bisphenol A diglycidyl ether]
1 mg kg-1 i.v. 30 min prior to agonist
  protective effect of rosiglitazone or 15d-PGJ2 against gut I/R: abolished the protective effect
[10]
  anti-inflammatory effects of rosiglitazone: abolished the anti-inflammatory effects

## CC(C)CC[C@@H](O)[C@@H](C)[C@H]1CC[C@H]2[C@@H]3CC=C4C[C@@H](O)CC[C@]4(C)[C@H]3CC[C@]12C [22(R)-hydroxycholesterol]
LXR
  suppressive effects of LXRs on PPARa-induced PPRE-luciferase activity: dose dependently enhanced

## CCCC1([C@H](O)C/C=C/[C@H]2[C@H](O)CC(=O)[C@@H]2CCCCCCC(=O)OC)CCC1 [Butaprost]
[4]
  cell growth: increased lung carcinoma cell growth

## CC(C)=CCC(=O)C1(O)C(O)=C(C(=O)CC(C)C)C(=O)C1CC=C(C)C (stereo not shown) [isohumulone]
PPARgamma [2]
  activation of PPARgamma: activate
PPARalpha
  activation of PPARalpha: activate
[11]
  body weight increase versus control group: did not result in significant body weight gain
  reduced plasma free fatty acid level: 73.1%
  reduced plasma glucose level: 65.3%
  reduced plasma triglyceride level: 62.6%

## CCCCCCCC(=O)O [octanoate]
Porcine carotid arteries
  adverse energetic effects of malate-aspartate shuttle inhibition: normalized

## CN(C)C(=N)N=C(N)N [metformin]
[12]; 8 mg rosiglitazone or 2 g metformin, 16 weeks
  HbA1c, insulin, and free fatty acid concentrations: similarly decreased
[12]; 2 g metformin, baseline 84+/−4, P<0.05
  Body weight at 16 weeks: 82 ± 4 kg
[12]; 16 weeks
  Serum adiponectin concentrations, increase: remained unchanged
[12]; baseline 15+/−3 rosiglitazone, 13+/−3 metformin
  Liver fat (proton spectroscopy) at 16 weeks: 14+/−3%

## nobotanin B
[8]
  Cell death: equally reduced

## NC(=O)c1ccc[n+]([C@@H]2O[C@H](COP(=O)([O-])OP(=O)(O)OC[C@H]3O[C@@H](n4cnc5c(N)ncnc54)[C@H](O)[C@@H]3O)[C@@H](O)[C@H]2O)c1 [NAD(+)]
[9]
  translocation of the apoptosis-inducing factor from mitochondria to nuclei: blocked translocation
  MPT and cell death: blocked both MPT and cell death
[9]; 10 mM extracellular NAD(+) after MNNG exposure
  glycolytic capacity and cell death: completely restored glycolytic capacity and prevented cell death

## [Cl-].[K+] [KCl]
[13]; glucose-PSS
  change in resting tone: -0.8 ± 0.8 g
[13]; lactate-PSS
  change in resting tone: 1.5 ± 0.7 g
[13]; pyruvate-PSS
  change in resting tone: -2.1 ± 0.8 g

## COC(=O)C(C)=O [methyl pyruvate]
[14]
  cation current across the inner membrane: directly inhibited
[15]
  mitochondrial alkalinization: more marked mitochondrial alkalinization than pyruvate
  mitochondrial metabolism compared with pyruvate: more efficient than pyruvate
[15]; D-glucose 16.7 mM and/or ester 20.0 mM
  insulin release: negative insulinotropic action
[15]; D-glucose 2.8 to 8.3 mM, ester not exceeding 1 0.0 mM
  insulin release: positive insulinotropic action
Pancreatic islets
  NADH and NADPH response: stimulated a robust NADH and NADPH response
[16]
  ATP production: higher
Pancreatic beta-cells
  NAD(P)H autofluorescence, ATP production, ATP/ADP ratio: slightly decreased NAD(P)H autofluorescence and did not influence ATP production or the ATP/ADP ratio
  cytosolic free Ca(2+) concentration: increased the cytosolic free Ca(2+) concentration after an initial decrease
  increase in insulin secretion relative to that induced by glucose: 6 fold
Pancreatic beta-cells; 0.5 mM glucose
  electrical activity: elicited electrical activity
Pancreatic beta-cells; 5-20 mM
  beta-cell membrane depolarization: depolarized the beta-cell in a concentration-dependent manner
Pancreatic beta-cells; absence of glucose
  concentration of maximal effect on insulin secretion: 5 mM
Pancreatic beta-cells; absence of glucose, pyruvate 5-20 mM
  insulin secretion: stimulated insulin secretion
Pancreatic beta-cells; islets
  insulin secretion and KATP block: block of KATP
Pancreatic beta-cells; pyruvate 5 mM, MP 5 mM, glucose 20 mM
  ATP/ADP ratio in whole islets: no effect
K(ATP) channels
  K(ATP) current: inhibited the K(ATP) current

## O=C(Nc1ccccc1)c1cc([N+](=O)[O-])ccc1Cl [GW9662, 2-chloro-5-nitro-N-henylbenzamide]
PPARgamma [17]
  activation of PPARgamma: prevented activation of PPARgamma
[18]
  growth of tumour cell lines: inhibited growth
[18]; combination with rosiglitazone
  rosiglitazone-induced growth inhibition: enhanced rather than reversed
[6]; concomitant treatment
  abrogation of suppression of HSC collagen by 15dPGJ(2): 70%
[1]
  15-deoxy-PGJ2-induced cell growth inhibition: reversed

## O=S(=O)(c1ccccc1)N(CC(F)(F)F)c1ccc(C(O)(C(F)(F)F)C(F)(F)F)cc1 [T0901317]
LXR
  suppressive effects of LXRs on PPARa-induced PPRE-luciferase activity: dose dependently enhanced

## CN(CCOc1ccc(C[C@H](Nc2ccccc2C(=O)c2ccccc2)C(=O)O)cc1)c1ccccn1 [GW1929]
[4]
  EP2 mRNA and protein levels: significant decrease
  cell growth: inhibition of cell growth

## CC(O)C(=O)O (stereo not shown) [lactate]
[13]; 10 mm in PSS
  increase of O2 consumption: without effect
